Experimental findings from publication PMC10279920, “Single-molecule visualization of Pif1 helicase translocation on single-stranded DNA” (The Journal of Biological Chemistry, 2023) are described below.

Substitutions are numbered along the chain they refer to.

Holding throughout (assay): ATP hydrolysis, [γ-32P]-ATP TLC, Michaelis-Menten fit
Format in all cases: biochemical
Common to all, as to settings: M13 ssDNA 1.5 μM nt, 10 nM Pif1, 5 mM MgCl2, 60 mM KCl, pH 7.5, 30 °C, no RPA; labelled compound as tracer

Test [1] has as its target T1, Pif1 (unlabeled, WT Pif1) (Saccharomyces cerevisiae, UniProt P07271).
T1 construct: nuclear isoform residues 40-859, pRSF-Duet-1, E. coli Rosetta2(DE3), Ni-NTA purified (tag not described), no GFP
T1 sequence (P07271 40-859): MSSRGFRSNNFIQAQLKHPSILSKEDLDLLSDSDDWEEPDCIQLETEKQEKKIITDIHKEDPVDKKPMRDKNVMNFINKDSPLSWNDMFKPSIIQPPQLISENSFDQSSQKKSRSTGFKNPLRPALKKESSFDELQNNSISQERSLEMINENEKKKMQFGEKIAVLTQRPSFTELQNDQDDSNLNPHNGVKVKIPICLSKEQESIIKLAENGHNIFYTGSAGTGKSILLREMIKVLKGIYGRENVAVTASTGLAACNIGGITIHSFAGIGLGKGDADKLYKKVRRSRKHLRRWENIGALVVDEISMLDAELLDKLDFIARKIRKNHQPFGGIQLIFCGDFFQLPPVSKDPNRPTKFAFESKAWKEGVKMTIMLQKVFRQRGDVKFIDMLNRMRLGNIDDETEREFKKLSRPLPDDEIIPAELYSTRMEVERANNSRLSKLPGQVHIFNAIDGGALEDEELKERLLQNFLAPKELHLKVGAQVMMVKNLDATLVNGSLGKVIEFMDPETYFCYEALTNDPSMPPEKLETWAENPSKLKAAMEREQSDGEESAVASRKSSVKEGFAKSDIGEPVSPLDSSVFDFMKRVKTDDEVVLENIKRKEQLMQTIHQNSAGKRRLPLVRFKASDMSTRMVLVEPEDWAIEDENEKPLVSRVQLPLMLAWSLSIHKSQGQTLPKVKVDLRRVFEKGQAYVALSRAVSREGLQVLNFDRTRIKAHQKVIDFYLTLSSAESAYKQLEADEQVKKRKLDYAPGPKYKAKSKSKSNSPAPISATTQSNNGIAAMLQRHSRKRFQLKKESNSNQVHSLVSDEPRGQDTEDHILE
On the procedure:
ATP hydrolysis, [γ-32P]-ATP TLC, Michaelis-Menten fit on Pif1 (unlabeled, WT Pif1) | Values for Vmax, Km, and kcat were determined and compared to WT Pif1

The target in test [2] is T2, GFP-Pif1 (Saccharomyces cerevisiae, UniProt P07271, K312A).
T2 construct: N-terminal superfolder GFP fusion of nuclear isoform residues 40-859, pRSF-Duet-1, E. coli Rosetta2(DE3), Ni-NTA purified
T2 sequence (P07271 40-859 K312A): T1 sequence (P07271 40-859) with K273A
The protocol:
(§1) ATP hydrolysis, [γ-32P]-ATP TLC, Michaelis-Menten fit on GFP-Pif1 | each of the mutant proteins was tested for ATPase activity

The target in test [3] is T3, GFP-Pif1 (Saccharomyces cerevisiae, UniProt P07271, H303A).
T3 construct: N-terminal superfolder GFP fusion of nuclear isoform residues 40-859, pRSF-Duet-1, E. coli Rosetta2(DE3), Ni-NTA purified
T3 sequence (P07271 40-859 H303A): T1 sequence (P07271 40-859) with H264A
On the procedure:
as §1

In test [4] the target is T4, GFP-Pif1 (Saccharomyces cerevisiae, UniProt P07271).
T4 construct: N-terminal superfolder GFP fusion of nuclear isoform residues 40-859, pRSF-Duet-1, E. coli Rosetta2(DE3), Ni-NTA purified
T4 sequence (P07271 40-859): T1 sequence (P07271 40-859)
The protocol: ATP hydrolysis, [γ-32P]-ATP TLC, Michaelis-Menten fit on GFP-Pif1 | Values for Vmax, Km, and kcat were determined and compared to WT Pif1

On to `Nc1ncnc2c1ncn2[C@@H]1O[C@H](COP(=O)(O)OP(=O)(O)OP(=O)(O)O)[C@@H](O)[C@H]1O` [ATP], for which the Km in test [1] worked out at 490 ± 370 µM; in test [2], 380 ± 310 µM; in test [3], 870 ± 1320 µM; in test [4] it was 470 ± 620 µM.

As usually defined, the Km is the concentration of substrate that gives half-maximal velocity.
